We go through seven compounds from US6753331B1, “Heterocyclic derivatives which inhibit factor Xa” (AstraZeneca AB, priority 1998, dated 2004).

One data set relates to human thrombin. The experiment in a line: test b) C2 (PT) against human thrombin. In kind it is biochemical. The following applies: PT = prothrombin time. The protocol:
b) Measurement of Thrombin Inhibition
The procedure of method a) is repeated except that human thrombin (0.005 Units/ml) and the chromogenic substrate S-2238 (KabiVitrum AB, 7 μM) are employed.
c) Measurement of Anticoagulant Activity
An in vitro assay whereby human, rat or rabbit venous blood is collected and added directly to a sodium citrate solution (3.2 g/100 ml, 9 parts blood to 1 part citrate solution). Blood plasma is prepared by centrifugation (1000 g, 15 minutes) and stored at 2-4° C. Conventional prothrombin time (PT) tests are carried out in the presence of various concentrations of a test compound and the concentration of test compound required to double the clotting time, hereinafter referred to as CT2, is determined. In the PT test, the test compound and blood plasma are incubated at 37° C. for 10 minutes. Tissue thromboplastin with calcium (Sigma Limited, Poole, England) is added and fibrin formation and the time required for a clot to form are determined.

As usually defined, the melting point is the temperature of the solid-liquid transition.

For `O=C(c1ccc(-n2ccnc2)cc1)N1CCN(S(=O)(=O)c2cc3cc(Cl)ccc3[nH]2)CC1` [Example 6, 1-(5-Chloroindol-2-ylsulphonyl)-4-[4-(1-imidazolyl)benzoyl]piperazine], the melting point lay in the range of 155 to 165 °C.

As to `O=C(c1ccc(-c2ccncc2)cc1)N1CCN(S(=O)(=O)c2cc3cc(Cl)ccc3[nH]2)CC1` [Example 3, 1-(5-chloroindol-2-ylsulphonyl)-4-[4-(4-pyridyl)benzoyl]piperazine], the melting point was 185 to 188 °C.

Consider `O=C(c1ccc(-c2ccncc2)cc1)N1CCN(S(=O)(=O)c2nc3ccc(Cl)cc3[nH]2)CC1` [Example 8, 1-(5-chlorobenzimidazol-2-ylsulphonyl)-4-[4-(4-pyridyl)benzoyl]piperazine], for which the melting point was in the range of 242 to 244 °C.

Regarding `O=C(c1ccc(-c2ccnnc2)cc1)N1CCN(S(=O)(=O)c2cc3cc(Cl)ccc3[nH]2)CC1` [Example 5, 1-(5-Chloroindol-2-ylsulphonyl)-4-[4-(4-pyridazinyl)benzoyl]piperazine], the melting point fell in the range of 170 to 172 °C.

With `O=C(c1ccc(-c2ccncc2)cc1)N1CCN(S(=O)(=O)c2cc3cc(Cl)ccc3o2)CC1` [Example 1, 1-(5-Chlorobenzo[b]furan-2-ylsulphonyl)-4-[4-(4-pyridyl)benzoyl]piperazine], the “C2 (PT) against human thrombin” value with human thrombin is 15 µM.

`O=C(c1ccc(-c2ccncn2)cc1)N1CCN(S(=O)(=O)c2cc3cc(Cl)ccc3[nH]2)CC1` [Example 4, 1-(5-Chloroindol-2-ylsulphonyl)-4-[4-(4-pyrimidyl)benzoyl]piperazine] registered a melting point of 229 to 230 °C.

For the compound `O=C(c1ccc(-c2ccncc2)cc1)N1CCN(S(=O)(=O)c2cc3ccc(Cl)cc3[nH]2)CC1` [Example 7, 1-(6-chloroindol-2-ylsulphonyl)-4-[4-(4-pyridyl)benzoyl]piperazine], the melting point lay within 231 to 234 °C.
